Reference: US20240376109A1, “PYRAZOLO[1,5-A]PYRIMIDINE COMPOUND FOR THE TREATMENT OF DERMAL DISORDERS” (OTSUKA PHARMACEUTICAL CO., LTD., priority 2021, published 2024)

Tests used:
PAR2 = molecular target: T1, PAR2 (Homo sapiens, UniProt P55085); test: Intracellular calcium concentration measurement (SLIGKV-NH2-induced calcium change, Fluo-8, FDSS/μCELL); type: cell-based; conditions: HEK293 cells; SLIGKV-NH2 10 μM-induced intracellular calcium change; read-out: IC50
T1 construct: HEK293 cell lines derived from human embryonic kidney cultured in a MEM culture medium; endogenous in cells; host or cells: HEK293
T1 sequence (P55085 26-397): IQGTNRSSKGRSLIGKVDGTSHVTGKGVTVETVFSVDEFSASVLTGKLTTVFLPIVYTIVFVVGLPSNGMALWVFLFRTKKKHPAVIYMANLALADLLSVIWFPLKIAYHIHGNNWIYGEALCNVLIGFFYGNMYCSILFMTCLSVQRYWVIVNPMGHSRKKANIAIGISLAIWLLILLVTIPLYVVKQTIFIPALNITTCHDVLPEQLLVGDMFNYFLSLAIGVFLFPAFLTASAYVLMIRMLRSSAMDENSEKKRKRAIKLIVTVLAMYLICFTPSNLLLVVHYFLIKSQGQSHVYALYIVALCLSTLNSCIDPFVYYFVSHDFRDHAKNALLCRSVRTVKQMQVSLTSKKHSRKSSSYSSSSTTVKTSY

ICR mice = test: Scratching behavior test with PAR2 agonist peptide (SLIGRL-NH2) administration; type: in vivo, mouse; conditions: 40 μL of 6% test compound solution applied to back, solvent 100% ethanol, SLIGRL-NH2 intradermal, scratching counted 10 to 40 minutes after
Procedure: Test Example 2: Scratching Behavior Test with PAR2 Agonist Peptide Administration
Magnets for measuring scratching behavior(Neuroscience, Inc.) were implanted in both legs of 6- to 7-week-old female ICR mice under 3.5% isoflurane inhalation anesthesia.
Under isoflurane inhalation anesthesia, the upper back was shaved about 2×3 cm with a shaver and 40 μL of a 6% of test compound solution was applied with a micropipette. The animals were then kept in a dedicated cage for 1 hour. […] Then, under isoflurane inhalation anesthesia, 10 μL of a 25 mg/mL solution of PAR2 agonist peptide (SLIGRL-NH2) in distilled water was administered intradermally by using a needle attached to a Hamilton syringe. The animals were returned to the cage and the scratching frequency was measured by the device for 30 minutes from 10 to 40 minutes after the administration.
The inhibitory effect of the test compounds on scratching behavior was calculated as a percentage of the number of scratches in the solvent-applied and PAR2 agonist peptide-treated group, and is shown in Table 4 as a percentage.

NZW rabbits = test: Rabbit skin cumulative irritation test (erythema and edema scores, 7 days); type: in vivo; set-up: key: sum of erythema (5-point scale) + edema (5-point scale) scores; conditions: 50 μL of 3% solution in 70% ethanol daily for 7 days; for Irritant score Day 7: average total score of erythema and edema on Day 7; for Irritant score Maximum: maximum (total) score of erythema and edema during the test period
Procedure: Test Example 4: Rabbit Skin Cumulative Irritation Test
18-20 week-old female NZW rabbits shaved on the back with a shaver were fitted with a collar (Natsume Seisakusho Co., Ltd.). A 2.5 cm×2.5 cm frame was placed on the back of the rabbits, and 50 μL of a 3% solution of each compound in 70% ethanol was applied to the place in 2 or 3 rabbits. The next day (approximately 24 hours later), the compound applied on the previous day was wiped off with a cotton pad soaked in lukewarm water, and approximately 30 minutes later, erythema (5-point scale) and edema (5-point scale) were evaluated according to the score criteria shown below.
After the score evaluation, the compound was applied again. This process was conducted for 7 days, and irritancy was evaluated by the average of the total score of erythema and edema on the last day of evaluation (Day 7) and the maximum (total) scores during the test period.
The score evaluation criteria were as follows.

NC/Nga mice = test: Scratching behavior test using atopic dermatitis model (SDS and mite antigen ointment sensitization); conditions: 60 μL applied, solvent 100% ethanol, 7 hours after application

| Structure (SMILES) | IC50 (PAR2) [nM] | scratching-behavior inhibition rate (ICR mice) [%] | Irritant score Day 7 (NZW rabbits) | Irritant score Maximum (NZW rabbits) | Scratching behavior inhibition rate (NC/Nga mice; assessed concentration 6%) [%] | Scratching behavior inhibition rate (NC/Nga mice; assessed concentration 3%) [%] |
| --- | --- | --- | --- | --- | --- | --- |
| CC(C)c1cc(CC2CCCC2)nc2cc(C(=O)N3CCCCC3(C)C)nn12 [Example 12] | 76 | 51 | 0.0 | 0.0 | 102 |  |
| CC(C)c1cc(CC2CCCC2)nc2cc(C(=O)N3CCCCCC3)nn12 [Example 15, azepan-1-yl-[5-(cyclopentylmethyl)-7-propan-2-ylpyrazolo[1,5-a]pyrimidin-2-yl]methanone] | 150 | 44 | 0.0 | 0.7 |  | 52 |
